According to patent publication US20250171404A1, “PCNA INHIBITORS AND USES THEREOF” (CITY OF HOPE, priority 2022, published 2025):
Values belong to the compound of their own block, whether it stands above or below them.

Tests used:
[1] = Cell growth IC50, screening of AOH1160 analogs (cell line not given); assay type: cell-based; conditions: read-out: IC50 values
Method: (§1) FIG. 29. IC50 data for select compounds. The indicated cell lines were seeded at 10^4 cells per well in a 96 well plate. After allowing to attach to the plate overnight, cells were treated with various concentrations of the indicated compounds in triplicates for 72 hrs. The cell growth was measured by an SRB assay. The cell abundances under each treatment condition relative to the baseline were averaged and graphed ±S.D. The baseline is defined as the median value of the cell abundances under the treatment by the two lowest compound concentrations. The IC50 was calculated by the Prism program.

SK-N-AS = assay: Cell growth IC50, screening of AOH1160 analogs; assay type: cell-based; conditions: Homo sapiens, read-out: IC50 values
Method: as §1

PCNA = molecular target: T1, PCNA (Homo sapiens, UniProt P12004); assay: Thermal denaturation (thermal shift) assay; assay type: binding; conditions: FIG. 24
T1 construct: made in house; host or cells: E. coli Rosetta 2 (DE3)
T1 sequence (P12004 whole entry): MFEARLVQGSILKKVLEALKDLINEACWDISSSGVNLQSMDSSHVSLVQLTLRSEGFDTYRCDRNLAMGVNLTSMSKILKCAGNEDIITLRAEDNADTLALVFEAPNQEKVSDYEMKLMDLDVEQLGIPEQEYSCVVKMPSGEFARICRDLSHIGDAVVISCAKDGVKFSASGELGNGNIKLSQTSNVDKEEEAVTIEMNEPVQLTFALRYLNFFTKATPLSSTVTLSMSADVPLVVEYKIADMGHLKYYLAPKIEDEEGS
Method: FIGS. 1A-1E. AOH1160 analog interactions with PCNA. FIG. 1A: Thermal shift assay: Normalized inverse derivative thermal denaturation plots of 9 μM apo-PCNA with DMSO control is depicted with a black dashed line and PCNA in the presence of 10 μM AOH1160LE is shown in light grey and 30 μM AOH1160LE in dark grey. ΔTm values are provided. FIG. 1B: As described in FIG. 1A, in the presence of 10 μM AOH1996 depicted in light grey and 30 μM AOH1996 depicted in dark grey. FIG. 1C: Four monomers (chains A-D) of PCNA are present in the asymmetric unit of the crystal. Chains A, B, and C form the homotrimer biological unit, while chain Dis orientated perpendicular to the plane of the ring, below the interface of chains B and C and it belongs to an adjacent ring. Inset: Three molecules of AOH1160LE bind in and adjacent to the PIP box cavity of each of the PCNA ring subunits. The omit map, gray mesh, is contoured to 1.56. Two PCNA monomer subunits from adjacent rings stack against each other, placing the PIP box and IDCLs of each subunit in opposing directions. FIG. 1D: The three AOH1160LE molecules are shown as stick figure representations. Two of the compounds, left and central, bind into the PIP box cavity at known PCNA-partner/compound interaction sites. […] The electrostatic surface maps are depicted with Poisson-Boltzmann electrostatic surface potentials shown in dark grey and light grey, corresponding to −10 to +10 kT/e respectively.
Targeting the PIP box and APIM binding domain of PCNA. AOH1160, a small molecule PCNA ligand, targets the cancer-distinct L126-Y133 region of PCNA (Malkas et al., 2006) and is selectively toxic to cancer cells (Gu et al., 2018). […]
Thermal denaturation assay for PCNA-AOH1996 interaction. […] Fluorescence intensity was measured within the excitation/emission ranges 470-505/540-700 nm.

HTC-116 = assay: Cell growth IC50, screening of AOH1160 analogs; assay type: cell-based; conditions: HTC-116; read-out: IC50 values
Method: as §1

OVCAR8 = assay: Cell growth IC50, screening of AOH1160 analogs; assay type: cell-based; conditions: Homo sapiens, OVCAR-8; OVCAR8; read-out: IC50 values
Method: as §1

RKO = assay: Cell growth IC50, screening of AOH1160 analogs; assay type: cell-based; conditions: Homo sapiens, read-out: IC50 values
Method: as §1

SK-N-BE(2)c = assay: Cell growth IC50, screening of AOH1160 analogs; assay type: cell-based; conditions: Homo sapiens
Method: as §1

γH2A.X = γH2A.X Western blot (DNA damage marker); assay type: cell-based, human; conditions: SK-N-AS; 500 nM AOH1996 and/or 50 μM DRB overnight
[2] = molecular target: T2, PCNA interaction with RPB1 (Homo sapiens, UniProt P12004); assay: PCNA interaction with RPB1 (immunoprecipitation, western blotting); assay type: cell-based; conditions: SK-N-AS
T2 construct: expressed in transfected cells; host or cells: SK-N-AS (FLAG-RPB1 exogenous; PCNA endogenous)
Method: FIGS. 5A-5E. Modulation of PCNA interaction with RNA polymerase II. FIG. 5A: Chromatin-bound (CB) proteins were fractioned from HEK293T cells expressing FLAG-tagged PCNA after the cells were treated with or without 500 nM AOH1996. Proteins in complex with FLAG-PCNA were immune-precipitated and analyzed by mass spectrometry. Shown are numbers of proteins whose abundances were altered (grey) or unaltered (black) by more than 2-fold by AOH1996 treatment. FIG. 5B: SK-N-AS cells exogenously expressing a FLAG-tagged RPB1 gene were fractioned before and after being treated with 500 nM AOH1996 overnight. PCNA in complex with chromatin-bound (CB) FLAG-RBP1 were analyzed by western blotting. FIG. 5C: Human SK-N-AS cells were treated with UV in the presence or absence of AOH1996 (AOH) or R9-caPep (caPep). Whole cell extracts were analyzed by western blotting. FIG. 5D: Cells exogenously expressing FLAG-tagged wildtype RPB1 or FLAG-tagged APIM-mutant RPB1 gene were fractioned. PCNA in complex with chromatin-bound (CB) FLAG-RBP1 were analyzed by western blotting. FIG. 5E: HEK293T cells were transiently transfected with a FLAG-tagged wildtype RPB1 (APIM WT) gene or mutant RPB1 gene (APIM mutant). The intracellular MCM7 and RBP1 (both the hypo-phosphorylated RNAPIIa and hyper-phosphorylated RNAPIIo forms) were analyzed by western blot after cells were treated by the indicated agents and/or UV.
Modulating PCNA interaction with transcription machinery.
Cell fractionation and immunoprecipitation. Cells were fractionated as previously described (Li et al., 2018). Briefly, intact nuclei isolated following osmotic lysis were homogenized using a 21 G needle. Chromatin was pelleted by centrifugation and incubated overnight at 4° C. with benzonase in two volumes of nuclease buffer (20 mM HEPES pH 7.5, 1.5 mM MgCl2, 1 mM EDTA, 150 mM KCl, 10% glycerol, 0.5 U μl-1 benzonase). The resulting supernatant was collected as the CB fraction. Alternatively, we sequentially incubated the chromatin pellet with RNase A and benzonase and collected the supernatants after each digestion as the CB:RNA+ and CB:RNA− fractions, respectively (Li et al., 2018).

Compound: O=C(CNC(=O)c1cccc2ccccc12)Nc1ccccc1C(=O)Nc1ccccc1 [AOH1160-2AB, N-(2-oxo-2-((2-(phenylcarbamoyl)phenyl)amino)ethyl)-1-naphthamide]
IC50 [1]: > 10 µM

IC50 (SK-N-AS): 0.156 µM
Compound: O=C(CNC(=O)c1cccc2ccccc12)Nc1ccccc1Oc1ccc(O)cc1 [AOH1160-4′-OH]

Compound: O=C(O)CC[C@@H](NC(=O)c1cccc2ccccc12)C(=O)Nc1ccccc1Oc1ccccc1 [AOH1160DE]
IC50 [1]: > 10 µM

Compound: NCCCC[C@@H](NC(=O)c1cccc2ccccc12)C(=O)Nc1ccccc1Oc1ccccc1 [AOH1160DK]
IC50 [1]: > 10 µM

Compound: CC(C)[C@@H](NC(=O)c1cccc2ccccc12)C(=O)Nc1ccccc1Oc1ccccc1 [AOH1160DV, (R)—N-(3-methyl-1-oxo-1-((2-phenoxyphenyl)amino)butan-2-yl)-1-naphthamide]
IC50 [1]: > 10 µM

Compound: NCCCC[C@H](NC(=O)c1cccc2ccccc12)C(=O)Nc1ccccc1Oc1ccccc1 [AOH1160LK]
IC50 [1]: > 10 µM

ΔTm (TSA data) (PCNA): very similar ΔTm compared to AOH1996
Compound: CC(C)[C@H](NC(=O)c1cccc2ccccc12)C(=O)Nc1ccccc1Oc1ccccc1 [AOH1160LV, (S)—N-(3-methyl-1-oxo-1-((2-phenoxyphenyl)amino)butan-2-yl)-1-naphthamide]
IC50 [1]: > 10 µM

IC50 (OVCAR8): > 10 µM
Compound: O=C(CNC(=O)c1cccc2ccccc12)Nc1ccccc1Nc1ccccc1 [AOH1160NH]
IC50 (HTC-116): > 10 µM
IC50 (RKO): > 10 µM

Compound: O=C(CNC(=O)c1cccc2ccccc12)Nc1ccccc1S(=O)(=O)c1ccccc1 [AOH1160SO2, N-(2-oxo-2-((2-(phenylsulfonyl)phenyl)amino)ethyl)-1-naphthamide]
IC50 [1]: > 10 µM

Compound: O=C(CCNC(=O)c1cccc2ccccc12)Nc1ccccc1Oc1ccccc1 [AOH1160e, N-(3-oxo-3-((2-phenoxyphenyl)amino)propyl)-1-naphthamide]
IC50 [1]: > 10 µM

Compound: O=C(Nc1ccccc1Oc1ccccc1)c1cccc2ccccc12 [AOH1160t]
IC50 [1]: > 10 µM

Compound: O=C(CNC(=O)c1nccc2ccccc12)Nc1ccccc1Oc1ccncc1 [AOH1167]
IC50 [1]: 42 µM

Compound: COc1cccc(Oc2ccccc2NC(=O)CNC(=O)c2ccc(-c3ccccc3)cc2)c1 [AOH1996BiNph, N-(2-((2-(3-methoxyphenoxy)phenyl)amino)-2-oxoethyl)-[1,1′-biphenyl]-4-carboxamide]
IC50 [1]: > 10 µM

Compound: COc1cccc(Oc2ccccc2NC(=O)[C@H](CCC(=O)O)NC(=O)c2cccc3ccccc23)c1 [AOH1996LE, (S)-4-(1-naphthamido)-5-((2-(3-methoxyphenoxy)phenyl)amino)-5-oxopentanoic acid]
IC50 [1]: > 10 µM

IC50 (OVCAR8): 2.6 µM
Compound: O=C(CNC(=O)c1cccc2ccccc12)Nc1ccccc1Sc1cccc(C(F)(F)F)c1 [AOH1996S-3CF3, N-(2-oxo-2-((2-((3-(trifluoromethyl)phenyl)thio)phenyl)amino)ethyl)-1-naphthamide]
IC50 (HTC-116): 4.6 µM
IC50 (RKO): 8 µM

IC50 (OVCAR8): 3.4 µM
Compound: O=C(CNC(=O)c1cccc2ccccc12)Nc1ccccc1Sc1ccc(C(F)(F)F)cc1 [AOH1996S-4CF3, N-(2-oxo-2-((2-((4-(trifluoromethyl)phenyl)thio)phenyl)amino)ethyl)-1-naphthamide]
IC50 (HTC-116): 4.6 µM
IC50 (RKO): 10 µM

IC50 (OVCAR8): 0.291 µM
Compound: Cc1ccc(Sc2ccccc2NC(=O)CNC(=O)c2cccc3ccccc23)cc1 [AOH1996S-4CH3, N-(2-oxo-2-((2-(p-tolylthio)phenyl)amino)ethyl)-1-naphthamide]
IC50 (HTC-116): 0.345 µM
IC50 (RKO): 0.503 µM

Compound: Cc1ccc(Sc2ccccc2NC(=O)[C@H](CCC(=O)O)NC(=O)c2cccc3ccccc23)cc1 [AOH1996SLE-4CH3, (S)-4-(1-naphthamido)-5-oxo-5-((2-(p-tolylthio)phenyl)amino) pentanoic acid]
IC50 [1]: > 10 µM

Compound: COc1cccc(Oc2ccccc2NC(=O)CNC(=O)Cc2cccc3ccccc23)c1 [AOH1996eNph, N-(2-(3-methoxyphenoxy)phenyl)-2-(2-(naphthalen-1-yl)acetamido) acetamide]
IC50 [1]: > 10 µM

Compound: COc1cccc(Oc2ccccc2NC(=O)CNC(=O)CCc2cccc3ccccc23)c1 [AOH1996eeNph, N-(2-((2-(3-methoxyphenoxy)phenyl)amino)-2-oxoethyl)-3-(naphthalen-1-yl) propanamide]
IC50 [1]: > 10 µM

Compound: COc1cccc(Oc2ccccc2NC(=O)c2cccc3ccccc23)c1 [AOH1996t, N-(2-(3-methoxyphenoxy)phenyl)-1-naphthamide]
IC50 [1]: > 10 µM

IC50 (SK-N-AS): 1.12 µM
IC50 (SK-N-BE(2)c): 1.03 µM
Compound: Cc1ccccc1Oc1ccccc1NC(=O)CNC(=O)c1cccc(C)c1C [AOH-DMB-2CH3, 2,3-dimethyl-N-(2-oxo-2-((2-(o-tolyloxy)phenyl)amino)ethyl)benzamide]

Compound: OC[C@H]1O[C@@H](n2cnc3cc(Cl)c(Cl)cc32)[C@H](O)[C@@H]1O [DRB, reference compound]
γH2A.X levels, AOH1996 with DRB (γH2A.X): can suppress the DNA damage induced by AOH1996

PCNA interaction with RPB1 ([2]; chromatin-bound): blocked PCNA interaction with RPB1
RPB1 levels ([2]; whole cell extracts): increased RPB1 levels
Compound: caPep: contains the L126-Y133 sequence of PCNA that overlaps APIM-interacting region of PCNA (LGIPEQEY; UniProt P12004 126-133, looked up, fragment) [reference compound]
